Source: patent publication US20250163043A1 (TRANSTHERA SCIENCES (NANJING), INC., priority 2021, published 2025)

Key:
[1] = test system: MV-4-11 (human myelomonocytic leukemia cells); experiment: CCK-8 cell proliferation assay, MV-4-11; type: cell-based; conditions: MV4-11, 24 h incubation, 11 concentrations from 5000 nM, 3-fold, read-out: MV-4-11 cell proliferation IC50 (class)
Protocol: Test samples: the compounds of the present invention, having structures shown above.
MV-4-11 (human myelomonocytic leukemia cells) and NCI-H929 (human myeloma cells).
The compounds were dissolved in DMSO and diluted 3-fold in the 96-well plate to obtain stock solutions with 11 concentration gradients. Each cell was inoculated into a 96-well plate, and the diluted compound stock solution was added to the 96-well plate to obtain a series of 11 concentration gradients of compound solutions with final concentrations of 5000 nM starting and 3-fold gradient decreasing, wherein the final DMSO content was […]. There was a medium containing 1‰ DMSO in the negative control well. The treated cells were incubated at 37° C. with 5% CO2 and 95% humidity, wherein MV-4-11 were incubated for 24 h and NCI-H929 for 72 h. After incubation was completed, each well was added with 10 μL of CCK-8 reagent, incubated for 1-3 h at room temperature and placed in the microplate reader, and the absorbance was read at 450 nm.
The inhibition rate was calculated according to the following formula: […]
ODcmpd: compound absorbance; ODpositive: average value of the absorbance of positive control without compound; ODvehicle: average value of the absorbance of solvent vehicle control.
IC50 values were fitted using GraphPad 7.0 based on inhibition rates of compounds at different concentrations.

CDK9/CycT1 = CDK9/CycT1 (Homo sapiens, UniProt P50750); experiment: ADP-Glo kinase assay on CDK enzymatic activity, CDK9/CycT1; type: biochemical; conditions: 10 concentrations from 10 μM, 4-fold, 60 min room temperature
Sequence of CDK9/CycT1 (P50750 whole entry): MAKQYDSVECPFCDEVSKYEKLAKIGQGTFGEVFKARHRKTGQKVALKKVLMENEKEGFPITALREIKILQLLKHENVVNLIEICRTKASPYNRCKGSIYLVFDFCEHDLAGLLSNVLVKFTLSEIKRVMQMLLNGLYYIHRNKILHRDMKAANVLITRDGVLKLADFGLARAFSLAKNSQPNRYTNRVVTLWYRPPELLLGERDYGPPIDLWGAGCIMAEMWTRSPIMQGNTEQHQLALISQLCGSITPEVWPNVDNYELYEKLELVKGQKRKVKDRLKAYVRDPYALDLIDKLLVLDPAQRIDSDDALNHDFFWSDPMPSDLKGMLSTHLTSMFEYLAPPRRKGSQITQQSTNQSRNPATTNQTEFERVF
Sequence of CDK9/CycT1 (O60563 whole entry partner): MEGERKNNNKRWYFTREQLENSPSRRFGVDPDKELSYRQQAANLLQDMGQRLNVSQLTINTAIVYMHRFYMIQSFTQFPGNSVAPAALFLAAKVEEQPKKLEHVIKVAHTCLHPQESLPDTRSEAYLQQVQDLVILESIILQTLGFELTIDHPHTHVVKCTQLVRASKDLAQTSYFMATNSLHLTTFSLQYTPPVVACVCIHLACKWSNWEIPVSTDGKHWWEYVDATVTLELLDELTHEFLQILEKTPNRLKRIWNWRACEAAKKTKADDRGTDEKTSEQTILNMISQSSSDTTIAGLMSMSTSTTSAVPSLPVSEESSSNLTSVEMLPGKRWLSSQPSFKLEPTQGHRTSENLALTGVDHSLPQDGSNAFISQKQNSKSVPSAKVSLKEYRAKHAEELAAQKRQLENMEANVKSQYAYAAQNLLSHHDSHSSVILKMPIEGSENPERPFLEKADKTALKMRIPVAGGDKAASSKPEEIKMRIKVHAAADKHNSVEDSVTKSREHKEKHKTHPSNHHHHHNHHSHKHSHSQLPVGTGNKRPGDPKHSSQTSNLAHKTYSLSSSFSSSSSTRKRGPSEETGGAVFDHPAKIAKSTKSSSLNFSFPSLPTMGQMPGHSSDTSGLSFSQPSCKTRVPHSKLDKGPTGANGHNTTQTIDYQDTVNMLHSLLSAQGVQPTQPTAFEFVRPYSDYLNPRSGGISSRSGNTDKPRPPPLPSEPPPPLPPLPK
Procedure, shortened: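 Kinase and compound are mixed and held 10 min at room temperature before substrate peptide and ATP start a 60 min reaction. Remaining ATP is depleted with ADP-Glo reagent (40 min), detection reagent is added (40 min), and luminescence gives inhibition rates across ten concentrations from 10 μM, fitted to IC50.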

CC(=O)N[C@@H]1CCC[C@H](C(=O)Nc2ncc3cc(C#N)nc(NC(C)C)c3n2)C1 [Compound 3, (1S,3R)-3-acetamido-N-(6-cyano-8-(isopropylamino)pyrido[3,4-d]pyrimidin-2-yl)cyclohexane-1-carboxamide]
IC50 [1]: > 1 µM

CC(=O)N[C@@H]1CCC[C@H](C(=O)Nc2ncc3cc(S(C)(=O)=O)nc(NC(C)C)c3n2)C1 [Compound 5, (1S,3R)-3-acetamido-N-(8-(isopropylamino)-6-(methylsulfonyl)pyrido[3,4-d]pyrimidin-2-yl)cyclohexane-1-carboxamide]
IC50 [1]: > 1 µM

CC(=O)N1CCC[C@H](C(=O)Nc2ncc3cc(C#N)nc(NC(C)C)c3n2)C1 [Compound 6, (S)-1-acetyl-N-(6-cyano-8-(isopropylamino)pyrido[3,4-d]pyrimidin-2-yl)piperidine-3-carboxamide]
IC50 [1]: > 1 µM

CC(=O)N[C@@H]1CCC[C@H](C(=O)Nc2ncc3cc(C(F)F)nc(NC(C)C)c3n2)C1 [Compound 7, (1S,3R)-3-acetamido-N-(6-(difluoromethyl)-8-(isopropylamino)pyrido[3,4-d]pyrimidin-2-yl)cyclohexane-1-carboxamide]
IC50 (CDK9/CycT1): 44 nM | IC50 [1]: > 1 µM

CC(=O)N[C@@H]1CCC[C@H](C(=O)Nc2ncc3cc(C)nc(NC(C)C)c3n2)C1 [Compound 8, (1S,3R)-3-acetamido-N-(8-(isopropylamino)-6-methylpyrido[3,4-d]pyrimidin-2-yl)cyclohexane-1-carboxamide]
IC50 [1]: > 1 µM

CCc1cc2cnc(NC(=O)[C@H]3CCC[C@@H](NC(C)=O)C3)nc2c(NC(C)C)n1 [Compound 9, (1S,3R)-3-acetamido-N-(6-ethyl-8-(isopropylamino)pyrido[3,4-d]pyrimidin-2-yl)cyclohexane-1-carboxamide]
IC50 [1]: > 1 µM

C=Cc1cc2cnc(NC(=O)[C@H]3CCC[C@@H](NC(C)=O)C3)nc2c(NC(C)C)n1 [Compound 10, (1S,3R)-3-acetamido-N-(8-(isopropylamino)-6-vinylpyrido[3,4-d]pyrimidin-2-yl)cyclohexane-1-carboxamide]
IC50 (CDK9/CycT1): 46 nM | IC50 [1]: > 1 µM

CNc1cc2cnc(NC(=O)[C@H]3CCC[C@@H](NC(C)=O)C3)nc2c(NC(C)C)n1 [Compound 11, (1S,3R)-3-acetamido-N-(8-(isopropylamino)-6-(methylamino)pyrido[3,4-d]pyrimidin-2-yl)cyclohexane-1-carboxamide]
IC50 [1]: > 1 µM

COc1cc2cnc(NC(=O)[C@H]3CCC[C@@H](NC(C)=O)C3)nc2c(NC(C)C)n1 [Compound 12, (1S,3R)-3-acetamido-N-(8-(isopropylamino)-6-methoxypyrido[3,4-d]pyrimidin-2-yl)cyclohexane-1-carboxamide]
IC50 [1]: > 1 µM

CC(=O)N[C@@H]1CCC[C@H](C(=O)Nc2cc3c(N4CCOCC4)nc(C#N)cc3cn2)C1 [Compound 21, (1S,3R)-3-acetamido-N-(7-cyano-5-morpholino-2,6-naphthyridin-3-yl)cyclohexane-1-carboxamide]
IC50 [1]: > 1 µM

CC(C)Nc1nc(C#N)cc2cnc(N[C@H]3CCC[C@@H](N)C3)cc12 [Compound 40, 7-(((1S,3R)-3-aminocyclohexyl)amino)-1-(isopropylamino)-2,6-naphthyridine-3-carbonitrile]
IC50 [1]: 0.4 to 1 µM

CC(C)Cc1nc(C#N)cc2cnc(N[C@H]3CCCNC3)cc12 [Compound 108, (S)-1-isobutyl-7-(piperidin-3-ylamino)-2,6-naphthyridine-3-carbonitrile]
IC50 [1]: 0.4 to 1 µM

CC(C)Nc1nc(C#N)cc2cnc(N[C@H]3CCNC3)nc12 [Compound 112, (S)-8-(isopropylamino)-2-(pyrrolidin-3-ylamino)pyrido[3,4-d]pyrimidine-6-carbonitrile]
IC50 (CDK9/CycT1): 17 nM | IC50 [1]: 0.4 to 1 µM

CC(C)Nc1nc(C#N)cc2cnc(N[C@@H]3CCNC3)nc12 [Compound 113, (R)-8-(isopropylamino)-2-(pyrrolidin-3-ylamino)pyrido[3,4-d]pyrimidine-6-carbonitrile]
IC50 (CDK9/CycT1): 9 nM | IC50 [1]: 0.4 to 1 µM

CC(C)Nc1nc(C#N)cc2cnc(N[C@@H]3CCCOC3)nc12 [Compound 117, (R)-8-(isopropylamino)-2-((tetrahydro-2H-pyran-3-yl)amino)pyrido[3,4-d]pyrimidine-6-carbonitrile]
IC50 (CDK9/CycT1): 6 nM | IC50 [1]: > 1 µM

CC(C)Nc1nc(C#N)cc2cnc(N[C@H]3CCOC3)nc12 [Compound 118, (S)-8-(isopropylamino)-2-((tetrahydrofuran-3-yl)amino)pyrido[3,4-d]pyrimidine-6-carbonitrile]
IC50 (CDK9/CycT1): 12 nM | IC50 [1]: > 1 µM

CC(C)Nc1nc(C#N)cc2cnc(N[C@@H]3CCOC3)nc12 [Compound 119, (R)-8-(isopropylamino)-2-((tetrahydrofuran-3-yl)amino)pyrido[3,4-d]pyrimidine-6-carbonitrile]
IC50 (CDK9/CycT1): 6 nM | IC50 [1]: > 1 µM

CC(C)Nc1nc(C#N)cc2cnc(NC3CCCS(=O)(=O)C3)nc12 (centres unmarked) [Compound 121, 2-((1,1-dioxidotetrahydro-2H-thiopyran-3-yl)amino)-8-(isopropylamino)pyrido[3,4-d]pyrimidine-6-carbonitrile]
IC50 (CDK9/CycT1): 14 nM | IC50 [1]: 0.4 to 1 µM

CC(C)Nc1nc(C#N)cc2cnc(N[C@H]3CC[C@@H](O)CC3)nc12 [Compound 125, 2-(((1s,4s)-4-hydroxycyclohexyl)amino)-8-(isopropylamino)pyrido[3,4-d]pyrimidine-6-carbonitrile]
IC50 (CDK9/CycT1): 9 nM | IC50 [1]: > 1 µM

CC(C)Nc1nc(C#N)cc2cnc(NC3CNC3)nc12 [Compound 129, 2-(azetidin-3-ylamino)-8-(isopropylamino)pyrido[3,4-d]pyrimidine-6-carbonitrile]
IC50 (CDK9/CycT1): 7 nM | IC50 [1]: > 1 µM

CC(C)Nc1nc(C#N)cc2cnc(N[C@@H]3CCCNCC3)nc12 [Compound 132, (R)-2-(azepan-4-ylamino)-8-(isopropylamino)pyrido[3,4-d]pyrimidine-6-carbonitrile]
IC50 (CDK9/CycT1): 12 nM | IC50 [1]: 0.4 to 1 µM

CC(C)Nc1nc(C#N)cc2cnc(N[C@H]3CC[C@@H](N)CC3)nc12 [Compound 137, 2-(((1s,4s)-4-aminocyclohexyl)amino)-8-(isopropylamino)pyrido[3,4-d]pyrimidine-6-carbonitrile]
IC50 (CDK9/CycT1): 10 nM | IC50 [1]: > 1 µM

CC(C)Nc1nc(C#N)cc2cnc(N[C@@H]3C[C@H]4COC[C@@H](C3)N4)nc12 [Compound 139, 2-(((1R,5S,7r)-3-oxa-9-azabicyclo[3.3.1]nonan-7-yl)amino)-8-(isopropylamino)pyrido[3,4-d]pyrimidine-6-carbonitrile]
IC50 (CDK9/CycT1): 6 nM | IC50 [1]: > 1 µM

CC(C)Nc1nc(C#N)cc2cnc(NC3CCCCC3O)cc12 (centres unmarked) [Compound 143, 7-((2-hydroxycyclohexyl)amino)-1-(isopropylamino)-2,6-naphthyridine-3-carbonitrile]
IC50 (CDK9/CycT1): 12 nM | IC50 [1]: > 1 µM

CC(C)Nc1nc(C#N)cc2cnc(NC3CCCC3N)cc12 (centres unmarked) [Compound 146, 7-((2-aminocyclopentyl)amino)-1-(isopropylamino)-2,6-naphthyridine-3-carbonitrile]
IC50 (CDK9/CycT1): 9 nM | IC50 [1]: > 1 µM

CC(C)Nc1nc(C#N)cc2cnc(N[C@H]3CCC[C@H]3N)cc12 [Compound 158, 7-(((1S,2R)-2-aminocyclopentyl)amino)-1-(isopropylamino)-2,6-naphthyridine-3-carbonitrile]
IC50 (CDK9/CycT1): 3 nM | IC50 [1]: 0.4 to 1 µM

CC(C)(C)Nc1nc(C#N)cc2cnc(NC(=O)[C@H]3CCCNC3)cc12 [Compound 177, (S)—N-(5-(tert-butylamino)-7-cyano-2,6-naphthyridin-3-yl)piperidine-3-carboxamide]
IC50 (CDK9/CycT1): 19 nM | IC50 [1]: > 1 µM

CC(C)(C)Nc1nc(C#N)cc2cnc(NC(=O)[C@@H]3CCCNC3)cc12 [Compound 178, (R)—N-(5-(tert-butylamino)-7-cyano-2,6-naphthyridin-3-yl)piperidine-3-carboxamide]
IC50 (CDK9/CycT1): 7 nM | IC50 [1]: 0.4 to 1 µM

N#Cc1cc2cnc(N[C@H]3CCCNC3)cc2c(C2CC2)n1 [Compound 194, (S)-1-cyclopropyl-7-(piperidin-3-ylamino)-2,6-naphthyridine-3-carbonitrile]
IC50 (CDK9/CycT1): 15 nM | IC50 [1]: > 1 µM

Cc1nc(C#N)cc2cnc(N[C@H]3CCCNC3)cc12 [Compound 196, (S)-1-methyl-7-(piperidin-3-ylamino)-2,6-naphthyridine-3-carbonitrile]
IC50 [1]: > 1 µM

N#Cc1cc2cnc(N[C@H]3CCCNC3)cc2c(OC2CC2)n1 [Compound 197, (S)-1-cyclopropoxy-7-(piperidin-3-ylamino)-2,6-naphthyridine-3-carbonitrile]
IC50 (CDK9/CycT1): 14 nM | IC50 [1]: > 1 µM

CCNc1nc(C#N)cc2cnc(N[C@H]3C[C@](C)(N)C3)cc12 [Compound 208, 7-(((1r,3r)-3-amino-3-methylcyclobutyl)amino)-1-(ethylamino)-2,6-naphthyridine-3-carbonitrile]
IC50 (CDK9/CycT1): 7 nM | IC50 [1]: 0.4 to 1 µM
